In PubChem BioAssay AID192 (DTP/NCI, 2004):
Several values for one entry are separate records, joined by “and”; a condition that tells them apart may be missing. Equal entries are not always repeated. Toxic doses and inconclusive results are not listed. Peptide text beside a SMILES is read from it.

Tested on: BDF1 mice, B16 melanoma ip, median survival T/C
Experiment: NCI In Vivo Anticancer Drug Screen. Data for tumor model B16 Melanoma (intraperitoneal) in B6D2F1 (BDF1) mice
Settings: endpoint: median survival time, higher = longer survival
Summary of the method: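 Survival or tumor size is measured after treatment of tumor-bearing mice and normalised to the vehicle-treated control group.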

[1] = dose: 100.0 mg/kg/injection, schedule: Q01DX009 (ip), vehicle: saline
[2] = dose: 200.0 mg/kg/injection, schedule: Q01DX009 (ip), vehicle: saline
[3] = dose: 400.0 mg/kg/injection, schedule: Q01DX009 (ip), vehicle: saline
[4] = dose: 100.0 mg/kg/injection, schedule: Q01DX009 (ip), vehicle: Klucel (hydroxypropylcellulose) (HPC)
[5] = dose: 200.0 mg/kg/injection, schedule: Q01DX009 (ip), vehicle: Klucel (hydroxypropylcellulose) (HPC)
[6] = dose: 25.0 mg/kg/injection, schedule: Q01DX009 (ip), vehicle: saline with Tween-80
[7] = dose: 50.0 mg/kg/injection, schedule: Q01DX009 (ip), vehicle: saline with Tween-80
[8] = dose: 100.0 mg/kg/injection, schedule: Q01DX009 (ip), vehicle: saline with Tween-80
[9] = dose: 25.0 mg/kg/injection, schedule: Q04DX003 (ip), vehicle: Klucel (hydroxypropylcellulose) (HPC)
[10] = dose: 12.5 mg/kg/injection, schedule: Q01DX009 (ip), vehicle: saline with Tween-80
[11] = dose: 25.0 mg/kg/injection, schedule: Q01DX009 (ip), vehicle: Klucel (hydroxypropylcellulose) (HPC)
[12] = dose: 50.0 mg/kg/injection, schedule: Q01DX009 (ip), vehicle: Klucel (hydroxypropylcellulose) (HPC)
[13] = dose: 25.0 mg/kg/injection, schedule: Q01DX009 (ip), vehicle: saline
[14] = dose: 200.0 mg/kg/injection, schedule: Q01DX009 (ip), vehicle: saline with Tween-80
[15] = dose: 400.0 mg/kg/injection, schedule: Q01DX009 (ip), vehicle: saline with Tween-80
[16] = dose: 12.5 mg/kg/injection, schedule: Q01DX009 (ip), vehicle: saline

## CCCOCC(O)CO (stereo not drawn)
[1]
  T/C: 118 % of control
[2]
  T/C: 118 % of control
[3]
  T/C: 112 % of control

## CN(CCOc1ccccc1O)CCOc1ccccc1O
[4]
  T/C: 111 % of control
[5]
  T/C: 105 % of control

## O=C(COc1ccc(Cl)cc1)Nc1ccccc1F
[6]
  T/C: 102 % of control
[7]
  T/C: 92 % of control
[8]
  T/C: 92 % of control

## CC[N+](CC)(CC)CC.N#C/C([SH2+])=C(/[SH2+])C#N.N#C/C([SH2+])=C(/[SH2+])C#N.[Cu+2]
dose: 12.5 mg/kg/injection, schedule: Q04DX003 (ip), vehicle: Klucel (hydroxypropylcellulose) (HPC)
  T/C: 92 % of control
[9]
  T/C: 89 % of control

## CC(=O)SCC(C)CCl (stereo not drawn)
[7]
  T/C: 100 % of control
[8]
  T/C: 100 % of control

## S=c1nc[nH]c2nc[nH]c12.[Ag]
dose: 300.0 mg/kg/injection, schedule: Q01DX009 (ip), vehicle: carboxymethylcellulose (CMC)
  T/C: 118 % of control

## C[CH2][Ge]([CH2]C)[CH2]C.C[CH2][Ge]([CH2]C)[CH2]C.C[CH2][Ge]([CH2]C)[O][Ge]([CH2]C)[CH2]C
dose: 6.25 mg/kg/injection, schedule: Q01DX009 (ip), vehicle: saline with Tween-80
  T/C: 101 % of control
[10]
  T/C: 100 % of control
[6]
  T/C: 101 % of control
[7]
  T/C: 91 % of control
[8]
  T/C: 100 % of control

## Oc1c(Cl)cc(Cl)cc1/C=N/NC(=S)Nc1cc(C(F)(F)F)cc(C(F)(F)F)c1
dose: 50.0 mg/kg/injection, schedule: Q01DX009 (ip), vehicle: olive oil, sesame oil, peanut oil
  T/C: 92 % of control
dose: 200.0 mg/kg/injection, schedule: Q01DX009 (ip), vehicle: olive oil, sesame oil, peanut oil
  T/C: 96 % of control

## O=C(O)c1[nH]c(=O)[nH]c(=O)c1N1CCCCC1
[9]
  T/C: 110 % of control
dose: 50.0 mg/kg/injection, schedule: Q04DX003 (ip), vehicle: Klucel (hydroxypropylcellulose) (HPC)
  T/C: 86 % of control

## O=c1cccccc1O.O=c1cccccc1O.[Cu]
dose: 0.39 mg/kg/injection, schedule: Q01DX009 (ip), vehicle: Klucel (hydroxypropylcellulose) (HPC)
  T/C: 102 % of control
dose: 0.78 mg/kg/injection, schedule: Q01DX009 (ip), vehicle: Klucel (hydroxypropylcellulose) (HPC)
  T/C: 92 % of control

## O=C(c1ccccc1Cl)N(Cc1ccccc1)c1ccccc1
[11]
  T/C: 93 % of control
[12]
  T/C: 93 % of control
[4]
  T/C: 90 % of control and 100 % of control

## c1ccc(OP2OCCO2)cc1
[13]
  T/C: 88 % of control
dose: 50.0 mg/kg/injection, schedule: Q01DX009 (ip), vehicle: saline
  T/C: 100 % of control
[1]
  T/C: 105 % of control
[2]
  T/C: 91 % of control

## O=[N+]([O-])c1ccc(Sc2ccncn2)c([N+](=O)[O-])c1
[10]
  T/C: 100 % of control and 109 % of control
[6]
  T/C: 94 % of control and 101 % of control
[7]
  T/C: 95 % of control and 106 % of control
[8]
  T/C: 108 % of control

## Cc1ccc(NC(=O)CCl)cc1Cl
[6]
  T/C: 97 % of control
[7]
  T/C: 102 % of control
[8]
  T/C: 101 % of control

## C[C@H]1C/C=C/[C@H]2[C@@H]3O[C@]3(C)[C@@H](C)[C@H]3[C@H](Cc4ccccc4)NC(=O)[C@]32OC(=O)O/C=C/[C@@](C)(O)C1=O
dose: 1.25 mg/kg/injection, schedule: Q01DX009 (ip), vehicle: Klucel (hydroxypropylcellulose) (HPC)
  T/C: 86 % of control
dose: 2.5 mg/kg/injection, schedule: Q01DX009 (ip), vehicle: Klucel (hydroxypropylcellulose) (HPC)
  T/C: 92 % of control
dose: 10.0 mg/kg/injection, schedule: Q01DX009 (ip), vehicle: Klucel (hydroxypropylcellulose) (HPC)
  T/C: 89 % of control

## Cc1ccccc1C(=O)NCC(=O)O
[8]
  T/C: 107 % of control
[14]
  T/C: 99 % of control
[15]
  T/C: 95 % of control

## COc1ccc2c(c1OC)C(=O)O[C@@H]2[C@H]1c2cc3c(cc2CCN1C)OCO3
dose: 10.0 mg/kg/injection, schedule: Q01DX009 (ip), vehicle: saline
  T/C: 112 % of control
dose: 20.0 mg/kg/injection, schedule: Q01DX009 (ip), vehicle: saline
  T/C: 108 % of control
dose: 40.0 mg/kg/injection, schedule: Q01DX009 (ip), vehicle: saline
  T/C: 98 % of control
dose: 80.0 mg/kg/injection, schedule: Q01DX009 (ip), vehicle: saline
  T/C: 109 % of control

## O=C(O)c1c(O)c(-c2ccccc2)nc2ccccc12
[12]
  T/C: 103 % of control
[4]
  T/C: 103 % of control

## O=c1[nH]c(=O)n(C2CC(O)C(CO)O2)cc1I (stereo not drawn)
[6]
  T/C: 106 % of control
[7]
  T/C: 118 % of control
[8]
  T/C: 123 % of control
[14]
  T/C: 116 % of control
[15]
  T/C: 120 % of control
dose: 800.0 mg/kg/injection, schedule: Q01DX009 (ip), vehicle: saline with Tween-80
  T/C: 150 % of control

## CCCCCCCCCCC(O)CN1CCN(c2ccc(C)cc2)CC1 (stereo not drawn)
dose: 12.5 mg/kg/injection, schedule: Q01DX009 (ip), vehicle: Klucel (hydroxypropylcellulose) (HPC)
  T/C: 92 % of control
[11]
  T/C: 105 % of control
[5]
  T/C: 86 % of control

## [I][Ga]([I])[I]
[16]
  T/C: 87 % of control
[13]
  T/C: 102 % of control

## CC(=O)/C=C/c1ccc(O)cc1
[4]
  T/C: 113 % of control
[5]
  T/C: 116 % of control
dose: 400.0 mg/kg/injection, schedule: Q01DX009 (ip), vehicle: Klucel (hydroxypropylcellulose) (HPC)
  T/C: 93 % of control

## COc1ccc2nc3cc(Cl)ccc3c(NC(C)CCCN(CCCl)CCCl)c2c1 (stereo not drawn)
dose: 0.12 mg/kg/injection, schedule: Q01DX009 (ip), vehicle: saline
  T/C: 114 % of control
dose: 0.25 mg/kg/injection, schedule: Q01DX009 (ip), vehicle: saline
  T/C: 105 % of control
dose: 0.5 mg/kg/injection, schedule: Q01DX009 (ip), vehicle: saline
  T/C: 105 % of control
dose: 0.62 mg/kg/injection, schedule: Q04DX003 (ip), vehicle: saline with Tween-80
  T/C: 110 % of control
dose: 1.25 mg/kg/injection, schedule: Q04DX003 (ip), vehicle: saline with Tween-80
  T/C: 110 % of control

## CC(=O)Oc1cc(-c2c(C)cc(C)cc2C)c(OC(C)=O)cc1C
dose: 100.0 mg/kg/injection, schedule: Q04DX003 (ip), vehicle: Klucel (hydroxypropylcellulose) (HPC)
  T/C: 93 % of control
dose: 200.0 mg/kg/injection, schedule: Q04DX003 (ip), vehicle: Klucel (hydroxypropylcellulose) (HPC)
  T/C: 91 % of control
dose: 400.0 mg/kg/injection, schedule: Q04DX003 (ip), vehicle: Klucel (hydroxypropylcellulose) (HPC)
  T/C: 97 % of control

## O=C(O)[C@@H]1[C@H](C(=O)O)[C@H](C(=O)O)C[C@@H]1C(=O)O
[1]
  T/C: 102 % of control
[2]
  T/C: 94 % of control
[3]
  T/C: 96 % of control

## CC(SC(C)c1ccccc1)c1ccccc1 (stereo not drawn)
[8]
  T/C: 101 % of control
[14]
  T/C: 99 % of control
[15]
  T/C: 88 % of control

## CNNC(=O)NC
dose: 1.56 mg/kg/injection, schedule: Q01DX009 (ip), vehicle: saline
  T/C: 87 % of control
dose: 3.12 mg/kg/injection, schedule: Q01DX009 (ip), vehicle: saline
  T/C: 95 % of control
[16]
  T/C: 100 % of control

## Cc1nc2c(=O)n(C)c(=O)n(C)c2n1C
dose: 50.0 mg/kg/injection, schedule: Q04DX003 (ip), vehicle: saline with Tween-80
  T/C: 105 % of control
dose: 100.0 mg/kg/injection, schedule: Q04DX003 (ip), vehicle: saline with Tween-80
  T/C: 105 % of control
dose: 200.0 mg/kg/injection, schedule: Q04DX003 (ip), vehicle: saline with Tween-80
  T/C: 105 % of control

## Cc1cccc(/C=N\OCCc2ccccc2)n1
[8]
  T/C: 97 % of control
[14]
  T/C: 93 % of control

## Cc1ccc([I+]c2ccc(C)cc2C)c(C)c1
dose: 0.18 mg/kg/injection, schedule: Q01DX009 (ip), vehicle: Klucel (hydroxypropylcellulose) (HPC)
  T/C: 114 % of control
dose: 0.37 mg/kg/injection, schedule: Q01DX009 (ip), vehicle: Klucel (hydroxypropylcellulose) (HPC)
  T/C: 92 % of control
dose: 0.75 mg/kg/injection, schedule: Q01DX009 (ip), vehicle: Klucel (hydroxypropylcellulose) (HPC)
  T/C: 87 % of control
dose: 6.0 mg/kg/injection, schedule: Q01DX009 (ip), vehicle: Klucel (hydroxypropylcellulose) (HPC)
  T/C: 90 % of control

## CC(C)C(NC(=O)C(N)CCC(=O)O)C(=O)O (stereo not drawn) (H-Glu-Val-OH; configuration not given here)
[7]
  T/C: 109 % of control
[8]
  T/C: 104 % of control
[14]
  T/C: 108 % of control
[15]
  T/C: 98 % of control

## COc1cccc(CN2CCCNCC2)c1
dose: 6.25 mg/kg/injection, schedule: Q01DX009 (ip), vehicle: water
  T/C: 102 % of control
dose: 12.5 mg/kg/injection, schedule: Q01DX009 (ip), vehicle: water
  T/C: 115 % of control
dose: 25.0 mg/kg/injection, schedule: Q01DX009 (ip), vehicle: water
  T/C: 114 % of control
dose: 50.0 mg/kg/injection, schedule: Q01DX009 (ip), vehicle: water
  T/C: 100 % of control
